# How the values were obtained:
# black nightshade = experiment: Test E black nightshade; assay type: in vivo, Solanum nigra; details: Postemergence
# Procedure, shortened: (§1)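 Greenhouse test: for postemergence, foliar application at 1- to 4-leaf stage; compound in non-phytotoxic solvent with surfactant. Rating is visual, relative to untreated controls, about 21 to 28 days after treatment.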
# spring wheat = experiment: Test E spring wheat; assay type: in vivo, Triticum aestivum; details: Postemergence
# Procedure, shortened: as §1
# windgrass = experiment: Test E windgrass; assay type: in vivo, Apera spica-venti; details: Preemergence
# galium = experiment: Test E galium; assay type: in vivo, Galium aparine; details: Postemergence
# Procedure, shortened: as §1
# Italian ryegrass = experiment: Test E Italian ryegrass; assay type: in vivo, Lolium multiflorum; details: Postemergence
# Protocol: (§2) Compounds evaluated in this test were formulated in a non-phytotoxic solvent mixture which included a surfactant and applied to plants that were in the 1- to 4-leaf stage (postemergence application). A mixture of sandy loam soil and greenhouse potting mix in a 60:40 ratio was used for the postemergence test.
# Plantings of these crops and weed species were adjusted to produce plants of appropriate size for the postemergence test. All plant species were grown using normal greenhouse practices. Crop and weed species include annual bluegrass (Poa annua), blackgrass (Alopecurus myosuroides), black nightshade (Solanum nigra), chickweed (Stellaria media), common poppy (Papaver rhoeas), deadnettle (Lamium amplexicaule), downy brome (Bromus tectorum), field violet (Viola arvensis), galium (Galium aparine), green foxtail (Setaria viridis), Italian ryegrass (Lolium multiflorum), jointed goatgrass (Aegilops cylindrica), kochia (Kochia scoparia), lambsquarters (Chenopodium album), littleseed canarygrass (Phalaris minor), rape (Brassica napus), redroot pigweed (Amaranthus retroflexus), Russian thistle (Salsola kali), scentless chamomile (Matricaria inodora), spring barley (Hordeum vulgare), sugar beet (Beta vulgaris), sunflower (Helianthus annuus), ivyleaf speedwell (Veronica hederaefolia), spring wheat (Triticum aestivum), winter wheat (Triticum aestivum), wild buckwheat (Polygonum convolvulus), wild mustard (Sinapis arvensis), wild oat (Avena fatua), windgrass (Apera spica-venti) and winter barley (Hordeum vulgare).
# Treated plants and untreated controls were maintained in a greenhouse for approximately 21 to 28 days, after which all treated plants were compared to untreated controls and visually evaluated. […] A dash response (-) means no test result.
# wild buckwheat = experiment: Test E wild buckwheat; assay type: in vivo, Polygonum convolvulus; details: Preemergence
# redroot pigweed = experiment: Test E redroot pigweed; assay type: in vivo, Amaranthus retroflexus; details: Preemergence
# annual bluegrass = experiment: Test E annual bluegrass; assay type: in vivo, Poa annua; details: Postemergence
# Procedure, shortened: as §1
# littleseed canarygrass = experiment: Test E littleseed canarygrass; assay type: in vivo, Phalaris minor; details: Preemergence
# deadnettle = experiment: Test E deadnettle; assay type: in vivo, Lamium amplexicaule; details: Preemergence
# jointed goatgrass = experiment: Test E jointed goatgrass; assay type: in vivo, Aegilops cylindrica; details: Preemergence
# common ragweed = experiment: Test C postemergence common ragweed; assay type: in vivo, Ambrosia elatior; details: 0 to 100 scale, 0 no effect, 100 complete control
# Procedure, shortened: (§3)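 In this greenhouse assay, treated and untreated plants were kept for approximately 14 to 21 days following postemergence application, then rated by eye on a scale from 0 (no effect) to 100 (complete control).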
# lambsquarters = experiment: Test C postemergence lambsquarters; assay type: in vivo, Chenopodium album; details: 0 to 100 scale, 0 no effect, 100 complete control
# Procedure, shortened: as §3
# purple nutsedge = experiment: Test C postemergence purple nutsedge; assay type: in vivo, Cyperus rotundus; details: 0 to 100 scale, 0 no effect, 100 complete control
# Procedure, shortened: as §3
# hairy beggarticks = experiment: Test C postemergence hairy beggarticks; assay type: in vivo, Bidens pilosa; details: 0 to 100 scale, 0 no effect, 100 complete control
# Procedure, shortened: as §3
# cocklebur = experiment: Test C postemergence cocklebur; assay type: in vivo, Xanthium strumarium; details: 0 to 100 scale, 0 no effect, 100 complete control
# Protocol: as §2, with “grown for various periods of time before treatment” for “in the 1- to 4-leaf stage”
# (§4) Plantings of these crops and weed species were adjusted to produce plants of appropriate size for the postemergence test. All plant species were grown using normal greenhouse practices. Crop and weed species include arrowleaf sida (Sida rhombifolia), barnyardgrass (Echinochloa crus-galli), cocklebur (Xanthium strumarium), common ragweed (Ambrosia elatior), corn (Zea mays), cotton (Gossypium hirsutum), eastern black nightshade (Solanum ptycanthum), fall panicum (Panicum dichotomiflorum), field bindweed (Convolvulus arvensis), giant foxtail (Setaria faberii), hairy beggarticks (Bidens pilosa), ivyleaf morningglory (Ipomoea hederacea), johnsongrass (Sorghum halepense), ladysthumb smartweed (Polygonum persicaria), lambsquarters (Chenopodium album), large crabgrass (Digitaria sanguinalis), purple nutsedge (Cyperus rotundus), redroot pigweed (Amaranthus retroflexus), soybean (Glycine max), surinam grass (Brachiaria decumbens), velvetleaf (Abutilon theophrasti) and wild poinsettia (Euphorbia heterophylla).
# (§5) Treated plants and untreated controls were maintained in a greenhouse for approximately 14, to 21 days, after which all treated plants were compared to untreated controls and visually evaluated. Plant response ratings, summarized in Table C, were based upon a 0 to 100 scale where 0 was no effect and 100 was complete control. A dash response (−) means no test result.
# eastern black nightshade = experiment: Test C postemergence eastern black nightshade; assay type: in vivo, Solanum ptycanthum; details: 0 to 100 scale, 0 no effect, 100 complete control
# Protocol: as §2, with “grown for various periods of time before treatment” for “in the 1- to 4-leaf stage”
# as §4, §5
# [1] = Rate 250 g/ha, 0 to 100 scale (0 no effect, 100 complete control)
# [2] = Rate 500 g/ha, 0 to 100 scale, 0 no effect, 100 complete control
# [3] = Rate 125 g/ha, 0 to 100 scale (0 no effect, 100 complete control)
# [4] = Rate 500 g/ha, 0 to 100 scale where 0 is no effect and 100 is complete control
# [5] = Rate 250 g/ha, 0 to 100 scale where 0 is no effect and 100 is complete control
smiles,measurement,setting,value
CC(C)N(C(=O)n1oc(=O)n(C(C)C)c1=O)c1ccc(Cl)cc1 [Compound 114],"Plant response rating, Blk nightshade","black nightshade; Rate 125 g/ha, 0 to 100 scale",50
same,"Plant response rating, Blk nightshade",black nightshade; [1],40
same,"Plant response rating, Blk nightshade",black nightshade; [2],80
same,"Plant response rating, Spring Wheat","spring wheat; Rate 125 g/ha, 0 to 100 scale",10
same,"Plant response rating, Spring Wheat",spring wheat; [1],20
same,"Plant response rating, Spring Wheat",spring wheat; [2],30
same,"Plant response rating, Windgrass",windgrass; [3],100
same,"Plant response rating, Windgrass",windgrass; [4],100
same,"Plant response rating, Galium","galium; Rate 125 g/ha, 0 to 100 scale",10
same,"Plant response rating, Galium",galium; [1],50
same,"Plant response rating, Galium",galium; [2],85
same,"Plant response rating, I. Ryegrass","Italian ryegrass; Rate 125 g/ha, 0 to 100 scale",10
same,"Plant response rating, I. Ryegrass",Italian ryegrass; [1],20
same,"Plant response rating, I. Ryegrass",Italian ryegrass; [2],20
same,"Plant response rating, Wild buckwheat",wild buckwheat; [3],20
same,"Plant response rating, Wild buckwheat","wild buckwheat; Rate 250 g/ha, 0 to 100 scale",50
same,"Plant response rating, Wild buckwheat",wild buckwheat; [4],80
same,"Plant response rating, Redroot pigweed",redroot pigweed; [3],50
same,"Plant response rating, Redroot pigweed","redroot pigweed; Rate 250 g/ha, 0 to 100 scale",65
same,"Plant response rating, Redroot pigweed",redroot pigweed; [4],100
same,"Plant response rating, Annual bluegras","annual bluegrass; Rate 125 g/ha, 0 to 100 scale",0
same,"Plant response rating, Annual bluegras",annual bluegrass; [1],30
same,"Plant response rating, Annual bluegras",annual bluegrass; [2],60
same,"Plant response rating, LS canarygrass",littleseed canarygrass; [3],50
same,"Plant response rating, LS canarygrass","littleseed canarygrass; Rate 250 g/ha, 0 to 100 scale",60
same,"Plant response rating, LS canarygrass",littleseed canarygrass; [4],80
same,"Plant response rating, Deadnettle",deadnettle; [3],20
same,"Plant response rating, Deadnettle","deadnettle; Rate 250 g/ha, 0 to 100 scale",20
same,"Plant response rating, Deadnettle",deadnettle; [4],20
same,"Plant response rating, Jointed goatgra",jointed goatgrass; [3],20
same,"Plant response rating, Jointed goatgra","jointed goatgrass; Rate 250 g/ha, 0 to 100 scale",65
same,"Plant response rating, Jointed goatgra",jointed goatgrass; [4],50
CCn1c(=O)on(C(=O)N(c2ccccc2)C(C)C)c1=O [Compound 117],Plant response rating Common ragweed,common ragweed; Rate 140 g/ha,0
same,Plant response rating Common ragweed,common ragweed; Rate 280 g/ha,0
same,Plant response rating Common ragweed,common ragweed; Rate 560 g/ha,20
same,Plant response rating Common ragweed,common ragweed; Rate 1120 g/ha,50
same,"Plant response rating, Lambsquarters",lambsquarters; Rate 140 g/ha,0
same,"Plant response rating, Lambsquarters",lambsquarters; Rate 280 g/ha,0
same,"Plant response rating, Lambsquarters",lambsquarters; Rate 560 g/ha,0
same,"Plant response rating, Lambsquarters",lambsquarters; Rate 1120 g/ha,0
same,"Plant response rating, Purple nutsedge",purple nutsedge; Rate 140 g/ha,0
same,"Plant response rating, Purple nutsedge",purple nutsedge; Rate 280 g/ha,0
same,"Plant response rating, Purple nutsedge",purple nutsedge; Rate 560 g/ha,10
same,"Plant response rating, Purple nutsedge",purple nutsedge; Rate 1120 g/ha,80
same,Plant response rating H. beggarticks,hairy beggarticks; Rate 1120 g/ha,0
same,"Plant response rating, Cocklebur",cocklebur; Rate 140 g/ha,0
same,"Plant response rating, Cocklebur",cocklebur; Rate 280 g/ha,0
same,"Plant response rating, Cocklebur",cocklebur; Rate 560 g/ha,0
same,"Plant response rating, Cocklebur",cocklebur; Rate 1120 g/ha,0
same,Plant response rating E. blacknightsh,eastern black nightshade; Rate 140 g/ha,0
same,Plant response rating E. blacknightsh,eastern black nightshade; Rate 280 g/ha,0
same,Plant response rating E. blacknightsh,eastern black nightshade; Rate 560 g/ha,70
same,Plant response rating E. blacknightsh,eastern black nightshade; Rate 1120 g/ha,80
CC(C)N(C(=O)n1oc(=O)n(C(C)C)c1=O)c1ccc(F)cc1 [Compound 131],"Plant response rating, Blk nightshade","black nightshade; Rate 62 g/ha, 0 to 100 scale",50
same,"Plant response rating, Blk nightshade","black nightshade; Rate 125 g/ha, 0 to 100 scale",50
same,"Plant response rating, Blk nightshade",black nightshade; [2],70
same,Blk nightshade plant response rating,black nightshade; [5],60
same,Plant response rating Common ragweed,common ragweed; Rate 140 g/ha,0
same,Plant response rating Common ragweed,common ragweed; Rate 280 g/ha,0
same,Plant response rating Common ragweed,common ragweed; Rate 560 g/ha,0
same,Plant response rating Common ragweed,common ragweed; Rate 1120 g/ha,0
same,"Plant response rating, Spring Wheat","spring wheat; Rate 62 g/ha, 0 to 100 scale",5
same,"Plant response rating, Spring Wheat","spring wheat; Rate 125 g/ha, 0 to 100 scale",0
same,"Plant response rating, Spring Wheat",spring wheat; [2],40
same,Spring Wheat plant response rating,spring wheat; [5],0
same,"Plant response rating, Lambsquarters",lambsquarters; Rate 140 g/ha,0
same,"Plant response rating, Lambsquarters",lambsquarters; Rate 280 g/ha,0
same,"Plant response rating, Lambsquarters",lambsquarters; Rate 1120 g/ha,0
same,"Plant response rating, Windgrass",windgrass; [3],100
same,Windgrass plant response rating (0 to 100 scale),windgrass; Rate 250 g/ha,100
same,"Plant response rating, Windgrass",windgrass; [4],100
same,"Plant response rating, Galium","galium; Rate 62 g/ha, 0 to 100 scale",50
same,"Plant response rating, Galium","galium; Rate 125 g/ha, 0 to 100 scale",10
same,"Plant response rating, Galium",galium; [2],50
same,Galium plant response rating,galium; [5],0
same,"Plant response rating, Purple nutsedge",purple nutsedge; Rate 140 g/ha,0
same,"Plant response rating, Purple nutsedge",purple nutsedge; Rate 280 g/ha,0
same,"Plant response rating, Purple nutsedge",purple nutsedge; Rate 560 g/ha,0
same,"Plant response rating, Purple nutsedge",purple nutsedge; Rate 1120 g/ha,80
same,"Plant response rating, I. Ryegrass","Italian ryegrass; Rate 62 g/ha, 0 to 100 scale",50
same,"Plant response rating, I. Ryegrass","Italian ryegrass; Rate 125 g/ha, 0 to 100 scale",0
same,"Plant response rating, I. Ryegrass",Italian ryegrass; [2],40
same,I. Ryegrass plant response rating,Italian ryegrass; [5],30
same,"Plant response rating, Wild buckwheat",wild buckwheat; [3],30
same,Wild buckwheat plant response rating (0 to 100 scale),wild buckwheat; Rate 250 g/ha,70
same,"Plant response rating, Wild buckwheat",wild buckwheat; [4],100
same,"Plant response rating, Redroot pigweed",redroot pigweed; [3],100
same,Redroot pigweed plant response rating (0 to 100 scale),redroot pigweed; Rate 250 g/ha,100
same,"Plant response rating, Redroot pigweed",redroot pigweed; [4],95
same,Plant response rating H. beggarticks,hairy beggarticks; Rate 140 g/ha,0
same,Plant response rating H. beggarticks,hairy beggarticks; Rate 560 g/ha,40
same,Plant response rating H. beggarticks,hairy beggarticks; Rate 1120 g/ha,70
same,"Plant response rating, Cocklebur",cocklebur; Rate 140 g/ha,0
same,"Plant response rating, Cocklebur",cocklebur; Rate 280 g/ha,0
same,"Plant response rating, Cocklebur",cocklebur; Rate 560 g/ha,0
same,"Plant response rating, Cocklebur",cocklebur; Rate 1120 g/ha,10
same,"Plant response rating, Annual bluegras","annual bluegrass; Rate 62 g/ha, 0 to 100 scale",55
same,"Plant response rating, Annual bluegras","annual bluegrass; Rate 125 g/ha, 0 to 100 scale",40
same,"Plant response rating, Annual bluegras",annual bluegrass; [2],70
same,Annual bluegras plant response rating,annual bluegrass; [5],40
same,Plant response rating E. blacknightsh,eastern black nightshade; Rate 140 g/ha,0
same,Plant response rating E. blacknightsh,eastern black nightshade; Rate 280 g/ha,10
same,Plant response rating E. blacknightsh,eastern black nightshade; Rate 560 g/ha,50
same,Plant response rating E. blacknightsh,eastern black nightshade; Rate 1120 g/ha,80
same,"Plant response rating, LS canarygrass",littleseed canarygrass; [3],70
same,LS canarygrass plant response rating (0 to 100 scale),littleseed canarygrass; Rate 250 g/ha,70
same,"Plant response rating, LS canarygrass",littleseed canarygrass; [4],100
same,"Plant response rating, Deadnettle",deadnettle; [3],30
same,Deadnettle plant response rating (0 to 100 scale),deadnettle; Rate 250 g/ha,60
same,"Plant response rating, Deadnettle",deadnettle; [4],100
same,"Plant response rating, Jointed goatgra",jointed goatgrass; [3],50
same,Jointed goatgra plant response rating (0 to 100 scale),jointed goatgrass; Rate 250 g/ha,70
same,"Plant response rating, Jointed goatgra",jointed goatgrass; [4],95
